Data on two compounds can be found in patent US20260345594A1, “Methods and Compositions for Controlling Jet Lag, Chronotype, or Circadian Rhythm” (University of Pittsburgh - Of the Commonwealth System of …, priority 2022, published 2026).

Structures are written as SMILES.

For one experiment, the target named is T1, Melanopsin (Homo sapiens, UniProt Q9UHM6).
T1 construct: V2 tail; expressed in transfected cells; host or cells: HTLA cells (HEK293 cell line with tTA-dependent luciferase reporter and β-arrestin2-TEV fusion)
T1 sequence (Q9UHM6 1-478): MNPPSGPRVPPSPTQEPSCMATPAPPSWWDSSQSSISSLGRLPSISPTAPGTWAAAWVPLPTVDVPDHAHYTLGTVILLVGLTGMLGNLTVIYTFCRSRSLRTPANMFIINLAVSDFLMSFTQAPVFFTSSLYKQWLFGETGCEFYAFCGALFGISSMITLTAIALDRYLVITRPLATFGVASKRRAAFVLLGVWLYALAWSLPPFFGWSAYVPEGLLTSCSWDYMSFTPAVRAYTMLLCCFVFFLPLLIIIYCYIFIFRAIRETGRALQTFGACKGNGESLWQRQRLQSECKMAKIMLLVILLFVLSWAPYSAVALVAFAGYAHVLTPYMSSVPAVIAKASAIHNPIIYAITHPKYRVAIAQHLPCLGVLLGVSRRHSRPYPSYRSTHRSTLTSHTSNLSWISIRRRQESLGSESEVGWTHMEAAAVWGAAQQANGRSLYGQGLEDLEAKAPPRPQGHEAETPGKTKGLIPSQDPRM
Description: Melanopsin (OPN4) Presto-Tango luciferase screen. It is filed as cell-based. The note with it: HTLA cells, LED light, agonist alone, read-out: EC50 of receptor activation by the ligand. The source says:
(§1) Presto-Tango Assay: Empty Tango plasmid was generated from Addgene plasmid #66225. Melanopsin was amplified by pcr from pAAV-GFAP104-melanopsin-mCherry (Addgene plasmid #122630) and AVPR1a from hV1aR-GFP (Addgene plasmid #67846) and cloned to generate OPN4- and AVPR1a-Tango plasmid. HTLA cells (a HEK293 cell line stably expressing a tTA-dependent luciferase reporter and a β-arrestin2-TEV fusion gene—a gift from Bryan Roth) was transfected with OPN4-Tango or AVPR1A-Tango plasmids. The HTLA Cells are grown in DMEM supplemented with 10% FBS, 100 U/ml penicillin and 100 μg/ml streptomycin, 2 μg/ml puromycin and 100 μg/ml hygromycin B (HTLA medium) in a humidified atmosphere at 37 °C in 5% CO2 (HTLA Medium).
(§2) Luciferase activity was measured using Bright-Glo Luciferase (Promega #E2160) assay.
(§3) Day 1: HTLA cells were plated in at 9 to 10×10^6 cells per 100 mm cell culture dish in HTLA Medium.
(§4) Day 2: The cells were transfected using the Polyethylenimine method. […]
(§5) Day 5: The medium containing drug solutions were removed from the wells (by aspiration or shaking), and 50 μL per well of Bright-Glo solution (Promega) diluted 10-fold in filter-sterilized assay buffer, which consisted of 20 mM HEPES and 1×HBSS at pH 7.4 and 1 mM Glucose were added to each well. After incubation for 15 to 20 minutes at room temperature, luminescence was counted in a BioTek-Flx-800 luminescence counter.

The target in experiment [1] is T2, AVPR1a (human vasopressin 1a receptor, V1AR) (Homo sapiens, UniProt P37288).
T2 construct: V2 tail; expressed in transfected cells; host or cells: HTLA cells (HEK293 cell line with tTA-dependent luciferase reporter and β-arrestin2-TEV fusion)
T2 sequence (P37288 whole entry, the tested form may be a part): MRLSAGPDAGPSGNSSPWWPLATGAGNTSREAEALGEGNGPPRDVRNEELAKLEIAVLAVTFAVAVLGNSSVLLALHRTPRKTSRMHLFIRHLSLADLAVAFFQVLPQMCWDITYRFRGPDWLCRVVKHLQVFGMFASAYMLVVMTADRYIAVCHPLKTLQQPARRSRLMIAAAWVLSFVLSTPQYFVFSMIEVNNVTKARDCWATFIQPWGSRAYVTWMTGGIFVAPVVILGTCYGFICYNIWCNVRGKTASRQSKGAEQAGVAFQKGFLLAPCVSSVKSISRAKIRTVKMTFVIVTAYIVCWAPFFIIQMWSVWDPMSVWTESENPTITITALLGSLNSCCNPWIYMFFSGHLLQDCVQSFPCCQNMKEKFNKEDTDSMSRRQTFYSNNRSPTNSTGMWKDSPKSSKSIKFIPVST
Description: AVPR1a Presto-Tango luciferase screen. Format: cell-based.
Description: as §1, §2, §3, §4, §5

Take `CC1=C(/C=C/C(C)=C\C=C\C(C)=C\C=O)C(C)(C)CCC1` [9-cis-Retinol]: on Melanopsin, the EC50 – broadly, the concentration giving half of the maximal effect – is about 250 nM.

`Cc1ccc2[nH]cc(CCNC(=O)Cn3c(=O)c(=O)n(Cc4ccccc4)c4ccccc43)c2c1` [MolPort-007-880-661]: in experiment [1] (5 nM Arginine Vasopressin, 16 hrs illumination (FIG. 9), inhibitor, read-out: EC50 (allosteric inhibition of AVPR1a, ratio of luciferase activity over positive control)), the IC50 was 360 nM. Besides, in experiment [1] (in words), the “V1AR inhibition validated by in vitro experiments” value is recorded as “effective V1AR inhibitors”.
